According to patent US6689767B2, “Triterpenes having antibacterial activity” (Regents of the University of Minnesota, priority 2000, dated 2004):
Values after ≈ are worked out from the molar mass of the structure shown. One block for each compound: values may come before it.

What was measured:
[1] = test system: Escherichia coli; test: Kirby-Bauer disk diffusion growth inhibition, Escherichia coli; type: cell-based; details: for zone of inhibition at 0.125 µg/mL: Escherichia coli, 125 ng/ml in water, read-out: Zone of inhibition Escherichia coli; for Active against: Table 1 summary, E. coli; for effectiveness against E. Coli: Tables 1a and 1b
Experimental: (§1) The compounds disclosed herein were tested for growth inhibition against four strains of bacteria: Escherichia coli, Staphylococcus aureus, methicillin-resistant Staphylococcus aureus, and Bacillus subtilis. […] They represent […]. E. coli is a gram-negative, non-spore forming, rod-shaped, opportunistic pathogen that resides in the human digestive tract. S. aureus is a gram positive coccus, is usually found morphologically as a […], and is an opportunistic human pathogen, often residing on or in the skin. B. subtilis is a gram positive spore-forming rod. Its native environment is the soil. The chemicals were tested for growth-inhibition of the bacteria by the Kirby-Bauer method. See, e.g., Microbiology, third edition; Lansing M. Prescott, John P. Harley, and Donald A. Klein; Wm. C. Brown Publishers.
(§2) Mueller-Hinton agar (Difco Lab, Michigan) was prepared according to the manufacturer's directions, and 20 ml was dispensed in each sterile petri dish. Sterile nutrient broth (Difco Lab, Michigan) was also prepared according to the manufacturer's directions.
(§3) Bacteria were grown in liquid nutrient broth for 18 hours at 37° C. until they were turbid.
(§4) An aliquot of 0.5 ml of cultured bacteria was aseptically transferred to the surface of a Mueller-Hinton agar plat, and spread using a cotton-tipped swab. Plates were then allowed to dry for 5 minutes. Then a 10 mm diameter filter paper disk impregnated with the test chemical was placed with sterile forceps on the plate. The disks were impregnated with 100 μl of a solution of the test compound in DMSO or in water, at the indicated concentrations in Table 1.
(§5) The zones of inhibition were measured after 18 hours growth at 37° C. Tests were done in triplicate.
(§6) Additional compounds were tested for activity against E. coli, laboratory strain S. aureus (not methicillin resistant), and B. subtilis. The compounds were tested by the disk diffusion method, as in Example 1, with application of a 10 mg/mil solution of the test compound in DMSO.

[2] = test system: Bacillus subtilis; test: Kirby-Bauer disk diffusion growth inhibition, Bacillus subtilis; type: cell-based; details: 100 μl on 10 mm disk, 18 hours 37° C.; for zone of inhibition at 0.125 µg/mL: Bacillus subtilis, 125 ng/ml in water, read-out: Zone of inhibition Bacillus subtilis
Experimental: as §1, §2, §3, §4, §5, §6

[3] = test system: Staphylococcus aureus; test: Kirby-Bauer disk diffusion growth inhibition, Staphylococcus aureus; type: cell-based; details: for zone of inhibition at 0.125 µg/mL: 125 ng/ml in water, read-out: Zone of inhibition Staphylococcus aureus; for Active against: Table 1 summary, S. aureus
Experimental: as §1, §2, §3, §4, §5, §6
(§7) Derivatives of lupeol were tested for inhibition of bacterial growth using the Kirby-Bauer disk diffusion method and by growth in liquid culture. For the disk diffusion method, compounds were dissolved in DMSO and 100 μl was added to the 10 mm filter paper disk. The amount of compound applied to the disk varied. The amount applied for each compound was as follows: lupeol (50 μg), lupeol-3-maleate (15 μg), lupeol-3-thiodiglycolate (15 μg), lupeol-3-dimethyl succinate (60 μg), lupeol-3-phosphate (30 μg), lupenone (50 μg), lupenon-3-oxime (50 μg), lupeol-3-amine (50 μg), lupenon-1,2-ene-2-ol (50 μg). In liquid culture, the compounds were dissolved in DMSO at 1 mg/ml and then 100 μl was added to 7 ml of sterile broth, along with a 1/200 dilution of freshly grown bacterial liquid culture.

[4] = test system: bacteria; test: Summary statements over the antibacterial assays above; type: cell-based; details: for active against at least one strain of bacteria in the assays above: summary list
[5] = test system: Staphylococcus epidemidis; test: Kirby-Bauer disk diffusion of lupeol derivatives, Staphylococcus epidermidis; type: cell-based; details: for Active against: Table 1 summary, S. epidermidis; for activity against S. epidermidis: Example 35, disk diffusion and liquid growth
Experimental: as §7

[6] = test system: Enterococcus faecilis; test: Growth in liquid culture, optical density, E. faecalis; type: cell-based, Enterococcus faecalis; details: 600 nm, 24 hours growth, test compound at 14 μg per ml; None = 0.85
Experimental: as §7

[7] = test system: Enterococcus faecalis; test: Kirby-Bauer disk diffusion of lupeol derivatives, Enterococcus faecalis; type: cell-based; details: for Active against: Table 1 summary, E. faecalis
Experimental: as §7

[8] = test system: Staphylococcus aureus; test: Growth in liquid culture, optical density, S. aureus; type: cell-based; details: 600 nm, 24 hours growth, test compound at 14 μg per ml; None = 0.08
Experimental: as §7

[9] = test system: Staphylococcus epidermis; test: Growth in liquid culture, optical density, S. epidermidis; type: cell-based, Staphylococcus epidermidis; details: 600 nm, 24 hours growth, test compound at 14 μg per ml; None = 0.07
Experimental: as §7

[10] = test system: E. Coli; test: Minimum inhibitory concentration in tryptic soy broth, E. coli; type: cell-based, Escherichia coli; details: 24 hours 37° C., turbidity
Experimental: Sterile tryptic soy broth was prepared according to the manufacturer's instructions (Difco Lab, Michigan). To each tube containing 7 ml of broth, test compounds dissolved in DMSO were added at different concentrations in triplicate. The tubes were incubated for 24 hours at 37° C. and then turbidity was measured using a […]. The colorimeter was calibrated with sterile broth. The MIC was the lowest concentration that could prevent an increase in turbidity.

[11] = 100 μl on 10 mm disk, 18 hours 37° C.
[12] = Staphylococcus aureus, 100 μl on 10 mm disk, 18 hours 37° C.
[13] = 50 μg applied to 10 mm disk in DMSO
[14] = Example 35, 50 μg applied to 10 mm disk in DMSO
[15] = 60 μg applied to 10 mm disk in DMSO
[16] = 10 mg/ml in DMSO, 100 μl on 10 mm disk, 18 hours 37° C.
[17] = 30 μg applied to 10 mm disk in DMSO
[18] = 15 μg applied to 10 mm disk in DMSO

SMILES: C=C(C)[C@@H]1CCC2(CO)CC[C@@]3(C)C(CCC4[C@@]5(C)C=C(O)C(=O)C(C)(C)C5CC[C@]43C)C12 (stereo partly shown) [Betulon-1,2-ene-ol, betulon-1-ene-2-ol]
zone of inhibition at 0.125 µg/mL [1, 11]: 0 mm | zone of inhibition at 0.125 µg/mL [2]: 0 mm | zone of inhibition at 0.125 µg/mL [3, 12]: 0 mm | melting point: 167 to 170 °C (dec.)

SMILES: C=C(C)[C@@H]1CC[C@]2(C)CC[C@]3(C)[C@H](CC[C@@H]4[C@@]5(C)CCC(=NO)C(C)(C)[C@@H]5CC[C@]43C)[C@@H]12 [Lupenon oxime, Lupenon-3-oxime]
active against at least one strain of bacteria in the assays above [4]: active against at least one strain of bacteria | Zone of inhibition (mm) against S. epiderm. [5, 13]: 0 mm | Optical Density of E. faecalis [6]: 0.45 | Zone of inhibition (mm) against S. aureus [3, 14]: 0.4 mm | Active against [3]: S. aureus, | Zone of inhibition (mm) against E. faecalis [7, 13]: 0.6 mm | Active against [7]: E. faecalis | Optical Density of S. aureus [8]: 0.06 | Optical Density of S. epiderm [9]: 0.06

SMILES: C=C(C)C1CCC2(COP(=O)(O)O)CC[C@@]3(C)C(CCC4[C@@]5(C)CCC(OP(=O)(O)O)C(C)(C)C5CC[C@]43C)C12 (stereo partly shown) [Betulin 3,28-diphosphate, Betulin-3,28-diphosphate]
active against at least one strain of bacteria in the assays above [4]: active against at least one strain of bacteria | zone of inhibition at 0.125 µg/mL [1, 11]: 11 mm | Active against [1]: E. coli | effectiveness against E. Coli [1]: effective | zone of inhibition at 0.125 µg/mL [2]: 0 mm | zone of inhibition at 0.125 µg/mL [3, 12]: 0 mm | MIC ([10]; Escherichia coli): 0.282 µM (≈ 0.17 µg/mL)

SMILES: C=C(C)C1CCC2(C)CCC3(C)C(CCC4C5(C)CCC(OC(=O)CC(C)(C)C(=O)O)C(C)(C)C5CCC43C)C12 (stereo not shown) [Lupeol-3-(3′,3′-dimethyl)succinate]
active against at least one strain of bacteria in the assays above [4]: active against at least one strain of bacteria | Zone of inhibition (mm) against S. epiderm. [5, 15]: 0 mm | Optical Density of E. faecalis [6]: 0.07 | Zone of inhibition (mm) against S. aureus ([3]; Example 35, 60 μg applied to 10 mm disk in DMSO): 0.5 mm | Active against [3]: S. aureus | Zone of inhibition (mm) against E. faecalis [7, 15]: 0 mm | Optical Density of S. aureus [8]: 0.06 | Optical Density of S. epiderm [9]: 0.06

melting point: 238.8 to 243.6 °C
SMILES: CC1(C)CCC23CC[C@@]4(C)C(CCC5[C@@]6(C)C=C(O)C(=O)C(C)(C)C6CC[C@]54C)C2C1OC3=O (stereo partly shown) [Allobetulon-lactone-1-ene-2-ol, allobetulon lactone-1-ene-2-ol]
zone of inhibition at 0.125 µg/mL [1, 11]: 0 mm | zone of inhibition at 0.125 µg/mL [2]: 0 mm | zone of inhibition at 0.125 µg/mL [3, 12]: 0 mm

SMILES: C=C(C)[C@@H]1CC[C@]2(C)CC[C@]3(C)[C@H](CC[C@@H]4[C@@]5(C)C=C(O)C(=O)C(C)(C)[C@@H]5CC[C@]43C)[C@@H]12 [Lupenon-1,2-ene-2-ol]
overall activity in Example 35 ([4]; S. aureus, S. epidermidis, E. faecalis, disk diffusion and liquid growth): most active compound against almost all the bacteria | active against at least one strain of bacteria in the assays above [4]: active against at least one strain of bacteria | Zone of inhibition (mm) against S. epiderm. [5, 13]: 2.65 mm | Active against [5]: S. epidermidis, | Optical Density of E. faecalis [6]: 0.01 | Zone of inhibition (mm) against S. aureus [3, 14]: 0.85 mm | Active against [3]: S. aureus, | Zone of inhibition (mm) against E. faecalis [7, 13]: 0.6 mm | Active against [7]: E. faecalis | Optical Density of S. aureus [8]: 0.04 | Optical Density of S. epiderm [9]: 0.006

SMILES: C=C(C)[C@@H]1CC[C@]2(COC(=O)COCC(=O)O)CC[C@]3(C)[C@H](CC[C@@H]4[C@@]5(C)CC[C@H](OC(=O)COCC(=O)O)C(C)(C)[C@@H]5CC[C@]43C)[C@@H]12 [Betulin 3,28-didiglycolate, Betulin-3,28-didiglycolate]
active against at least one strain of bacteria in the assays above [4]: active against at least one strain of bacteria | Zone of inhibition Escherichia coli [1, 16]: 0 mm | Active against [1]: E. coli | effectiveness against E. Coli [1]: effective | Zone of inhibition Bacillus subtilis ([2]; 10 mg/ml in DMSO): 0 mm | Zone of inhibition Staphylococcus aureus [3, 16]: 0 mm | MIC [10]: 0.282 µM (≈ 0.19 µg/mL)

melting point: 312.5 to 315.4 °C (dec.)
SMILES: CC(=O)OC1CC[C@@]2(C)C(CC[C@]3(C)C2CCC2C4C5OC(=O)C4(CCC5(C)C)CC[C@@]23C)C1(C)C (stereo partly shown) [Allobetulin lactone-3-acetate, 3-O-acetyl allobetulin-lactone]

SMILES: C=C(C)[C@@H]1CC[C@]2(C)CC[C@]3(C)[C@H](CC[C@@H]4[C@@]5(C)CC[C@H](OP(=O)(O)O)C(C)(C)[C@@H]5CC[C@]43C)[C@@H]12 [Lupeol-3-phosphate]
active against at least one strain of bacteria in the assays above [4]: active against at least one strain of bacteria | Zone of inhibition (mm) against S. epiderm. [5, 17]: 0 mm | Optical Density of E. faecalis [6]: 0.04 | Zone of inhibition (mm) against S. aureus ([3]; Example 35, 30 μg applied to 10 mm disk in DMSO): 0.5 mm | Active against [3]: S. aureus, | Zone of inhibition (mm) against E. faecalis [7, 17]: 0.5 mm | Active against [7]: E. faecalis | Optical Density of S. aureus [8]: 0.06 | Optical Density of S. epiderm [9]: 0.06

SMILES: C=C(C)[C@@H]1CC[C@]2(C)CC[C@]3(C)[C@H](CC[C@@H]4[C@@]5(C)CC[C@H](OC(=O)CSCC(=O)O)C(C)(C)[C@@H]5CC[C@]43C)[C@@H]12 [Lupeol-3-thiodiglycolate]
active against at least one strain of bacteria in the assays above [4]: active against at least one strain of bacteria | Zone of inhibition (mm) against S. epiderm. [5, 18]: 0.5 mm | activity against S. epidermidis [5]: active | Active against [5]: S. epidermidis, | Optical Density of E. faecalis [6]: 0.04 | Zone of inhibition (mm) against S. aureus ([3]; Example 35, 15 μg applied to 10 mm disk in DMSO): 0.3 mm | Active against [3]: S. aureus, | Zone of inhibition (mm) against E. faecalis [7, 18]: 0.75 mm | Active against [7]: E. faecalis | Optical Density of S. aureus [8]: 0.06 | Optical Density of S. epiderm [9]: 0.035

SMILES: C=C(C)[C@@H]1CC[C@]2(C)CC[C@@]3(C)C(CCC4[C@@]5(C)CC[C@H](O)C(C)(C)C5CC[C@]43C)C12 (stereo partly shown) [Lupeol]
active against at least one strain of bacteria in the assays above [4]: active against at least one strain of bacteria | activity against S. epidermidis [5]: active | zone of inhibition at 50 µg/disc ([5]; Staphylococcus, 50 μg applied to 10 mm disk in DMSO, read-out: Zone of inhibition (mm) against S. epiderm.): 0 mm | Active against [5]: S. epidermidis | zone of inhibition at 0.125 µg/mL [1, 11]: 0 mm | Optical Density of E. faecalis [6]: 0.03 | zone of inhibition at 0.125 µg/mL [2]: 0 mm | zone of inhibition at 0.125 µg/mL [3, 12]: 0 mm | zone of inhibition at 50 µg/disc ([3]; Staphylococcus aureus, Example 35, 50 μg applied to 10 mm disk in DMSO, read-out: Zone of inhibition (mm) against S. aureus): 1 mm | Active against [3]: S. aureus, | zone of inhibition at 50 µg/disc ([7]; Enterococcus faecalis, 50 μg applied to 10 mm disk in DMSO, read-out: Zone of inhibition (mm) against E. faecalis): 1.4 mm | Active against [7]: Enterococcus faecalis | Optical Density of S. aureus [8]: 0.06 | Optical Density of S. epiderm [9]: 0.04
